Assay results: patent US20180206498A1, “SUBSTITUTED HETEROARYL CARBOXYLIC ACID HYDRAZIDES OR SALTS THEREOF AND USE THEREOF TO INCREASE STRESS TOLERANCE IN PLANTS” (Bayer CropScience Aktiengesellschaft, priority 2015, published 2018)

Experiments:
Zea mays = assay: Drought stress in vivo analysis, efficacy EF from visually scored damage intensity; conditions: scored after recovery phase
Protocol: (§1) Seeds of monocotyledonous and dicotyledonous crop plants were sown in sandy loam in wood-fiber or plastic pots, covered with soil or sand and cultivated in a greenhouse under good growth conditions. The trial plants were treated at the early leaf stage (BBCH10-BBCH13). To assure uniform water supply before commencement of stress, the potted plants were supplied with water by dam irrigation prior to substance application. The inventive compounds formulated in the form of wettable powders (WP) were sprayed onto the green parts of the plants as an aqueous suspension at an equivalent water application rate of 600 I/ha with addition of 0.2% wetting agent (e.g. agrotin). Substance application was followed immediately by stress treatment of the plants. For this purpose, the wood-fiber pots were transferred in plastic inserts in order to prevent them from subsequently drying out too quickly. Drought Stress was Induced by Gradual Drying Out Under the Following Conditions: “Day”: 14 hours with illumination at ˜26-30° C. “Night”: 10 hours without illumination at ˜18-20° C. The duration of the respective stress phases was guided mainly by the condition of the stressed control plants. It was ended (by re-irrigating and transfer to a greenhouse with good growth conditions) as soon as irreversible damage was observed on the stressed control plants. The end of the stress phase was followed by an about 4-7-day recovery phase, during which the plants were once again kept under good growth conditions in a greenhouse. The duration of the recovery phase was guided mainly by when the trial plants had attained a state which enabled visual scoring of potential effects, and is therefore variable. Once this juncture was reached, the intensities of damage were scored visually in comparison to untreated, unstressed controls of the same age. The damage intensity was at first assessed in percent. These values were then used to calculate the efficacy of the test compounds by the following formula: [formula] EF: Efficacy DIs: Damage intensity of the stressed control plants DIh: Damage intensity of the stressed plants treated with test compound The values reported in tables A-1 to A-3 below are mean values from at least one trial with at least two repeats. The effects of selected compounds of the general formula (I) under drought stress on various crop plants were measured. BRSNS=Brassica napus ZEAMX=Zea mays TRZAS=Triticum aestivum

Brassica napus [1] = assay: as above; conditions: spray 250 g/ha, scored after recovery phase
Protocol: as §1

Triticum aestivum [2] = assay: as above; conditions: scored after recovery phase
Protocol: as §1

Brassica napus [3] = assay: Drought stress in vivo analysis Part B, appearance vs stressed control plants in categories; set-up: key: 0: no positive effect; +: slight positive effect; ++: clear positive effect; +++: strong positive effect
Protocol: (§2) Seeds of monocotyledonous and dicotyledonous crop plants were sown in sandy loam in plastic pots, covered with soil or sand and cultivated in a greenhouse under good growth conditions. The test plants are treated at the early leaf stage (BBCH10-BBCH13). To assure uniform water supply before commencement of stress, the potted plants were supplied with water by dam irrigation prior to substance application. The inventive compounds were first formulated as wettable powders (WP) or dissolved in a solvent mixture. The further dilution was effected with water supplemented with 0.2% wetting agent (e.g. agrotin). The finished spray liquor was sprayed onto the green parts of the plant at an equivalent water application rate of 600 I/ha. Substance application was followed immediately by stress treatment of the plants. Drought Stress was Induced by Gradual Drying Out Under the Following Conditions: “Day”: 14 hours with illumination at […]-30° C. “Night”: 10 hours without illumination at 18-20° C. The duration of the respective stress phases was guided mainly by the condition of the stressed control plants. It was ended (by re-irrigating and transfer to a greenhouse with good growth conditions) as soon as irreversible damage was observed on the stressed control plants. The end of the stress phase was followed by an about 4-7-day recovery phase, during which the plants were once again kept under good growth conditions in a greenhouse. The duration of the recovery phase was guided mainly by when the trial plants had attained a state which enabled visual scoring of potential effects, and was therefore variable. Once this juncture had been reached, the appearance of the plants treated with test substances was recorded in comparison to the stressed control plants by the following categories: [table] In order to rule out any influence on the effects observed by any fungicidal or insecticidal action of the test compounds, it was additionally ensured that the tests proceeded without fungal infection or insect infestation. The values reported in tables B-1 and […] below are mean values of the results from at least three repeats. Effects of selected compounds of the general formula (I) under drought stress according to the following tables B-1 and B-2: BRSNS=Brassica napus ZEAMX=Zea mays TRZAS=Triticum aestivum

Triticum aestivum [4] = assay: as above; set-up: key: 0: no positive effect; +: slight positive effect; ++: clear positive effect; +++: strong positive effect
Protocol: as §2

Row | Structure (SMILES) | Effect (BRSNS) (Brassica napus [3]; spray 250 g/ha) | Effect (TRZAS) (Triticum aestivum [4]; spray 250 g/ha) | also measured
1 | COc1cc(OC)nc(CN(C(=O)c2c(C(F)F)nn(C)c2F)N(C)C)n1 [Compound A5-30] |  |  | EF [%] (ZEAMX) (Zea mays; spray 25 g/ha): >5%
2 | CN(C)N(Cc1ccccn1)C(=O)c1c(C(F)F)nn(C)c1Cl [Compound A6-21, 5-Chloro-3-(difluoromethyl) —N′,N′,1-trimethyl-N-(pyridin-2-ylmethyl)-1H-pyrazole-4-carbohydrazide] |  |  | EF [%] (ZEAMX) (Zea mays; spray 250 g/ha): >5%; EF [%] (BRSNS) (Brassica napus [1]): >5%
3 | CN(C)N(Cc1ccccc1Cl)C(=O)c1ccsc1 [Compound B2-1] |  |  | EF [%] (ZEAMX) (Zea mays; spray 25 g/ha): >5%; EF [%] (TRZAS) (Triticum aestivum [2]; spray 250 g/ha): >5%
4 | CN(C)N(Cc1ccccn1)C(=O)c1ccsc1 [Compound B2-21] |  |  | EF [%] (ZEAMX) (Zea mays; spray 250 g/ha): >5%; EF [%] (TRZAS) (Triticum aestivum [2]; spray 25 g/ha): >5%
5 | CN(C)N(Cc1ccccc1C#N)C(=O)c1ccsc1 [Compound B2-61] |  |  | EF [%] (ZEAMX) (Zea mays; spray 250 g/ha): >5%; EF [%] (BRSNS) (Brassica napus [1]): >5%; EF [%] (TRZAS) (Triticum aestivum [2]; spray 20 g/ha): >5%
6 | CN(C)N(Cc1ccccc1C#N)C(=O)c1ccco1 [Compound C1-61] |  |  | EF [%] (ZEAMX) (Zea mays; spray 250 g/ha): >5%
7 | CC(C)c1nnsc1C(=O)N(Cc1ccccc1C#N)N(C)C [Compound F2-61, 4-Isopropyl-N′,N′-dimethyl-N-(2-cyanobenzyl)-1,2,3-thiadiazole-5-carbohydrazide] | + | + | 
8 | CN(C)N(Cc1ccccc1Cl)C(=O)c1ccns1 [Compound G8-1] | + | + | 
9 | CN(C)N(Cc1ccc(Cl)nc1)C(=O)c1ccns1 [Compound G8-94] |  |  | Effect (BRSNS) (Brassica napus [3]; spray 25 g/ha): +; Effect (TRZAS) (Triticum aestivum [4]; spray 25 g/ha): ++
10 | O=C(c1ccns1)N(Cc1cccc(Cl)c1Cl)N1CCCC1 [Compound G9-4] | ++ |  | Effect (TRZAS) (Triticum aestivum [4]; spray 25 g/ha): ++
11 | O=C(c1ccns1)N(Cc1ccccc1F)N1CCCC1 [Compound G9-11] | + | + | 
12 | O=C(c1ccns1)N(Cc1ncc(C(F)(F)F)cc1Cl)N1CCCC1 [Compound G9-36] | ++ |  | Effect (TRZAS) (Triticum aestivum [4]; spray 25 g/ha): +
13 | CN(C)N(Cc1ccc(Cl)nc1)C(=O)c1cc(OCc2ccccc2)ns1 [Compound G10-94] | ++ |  | Effect (TRZAS) (Triticum aestivum [4]; spray 25 g/ha): +
14 | Cc1c(OCc2ccccc2)nsc1C(=O)N(Cc1cccc(Cl)c1Cl)N(C)C [Compound G11-4] | ++ | + | 
15 | Cc1c(OCc2ccccc2)nsc1C(=O)N(Cc1ccc(Cl)nc1)N(C)C [Compound G11-94] | + | + | 
16 | CN(C)N(Cc1ccc(Cl)cc1)C(=O)c1cnsn1 [Compound H1-3] |  |  | Effect (BRSNS) (Brassica napus [3]; spray 25 g/ha): +; Effect (TRZAS) (Triticum aestivum [4]; spray 25 g/ha): +
17 | CN(C)N(Cc1ccccc1F)C(=O)c1cnsn1 [Compound H1-11] | + | + | 
18 | O=C(c1cnsn1)N(Cc1cccc(Cl)c1Cl)N1CCCC1 [Compound H2-4] | + | + | 
19 | O=C(c1cnsn1)N(Cc1ccccc1F)N1CCCC1 [Compound H2-11] |  | + | Effect (BRSNS) (Brassica napus [3]; spray 25 g/ha): +
20 | O=C(c1cnsn1)N(Cc1ccc(Cl)nc1)N1CCCC1 [Compound H2-94] | + | + | 
